# Measured values taken from patent US11472791B2 (Incyte Corporation, priority 2019, dated 2022).
# Target: CDK2/Cyclin E1 (Homo sapiens (Human), UniProt P24941)
# Test: CDK2/Cyclin E1 HTRF enzyme activity assay
# Format: biochemical
# Conditions: 1 mM ATP
# Description: Assays are conducted in white 384-well polystyrene plates in a final reaction volume of 8 μL. […] HTRF signals are read after 1 hour at room temperature on a PHERAstar FS plate reader (BMG Labtech). Data is analyzed with IDBS XLFit and GraphPad Prism 5.0 software using a three or four parameter dose response curve to determine IC50 for each compound.
row,IC50 [nM],Structure (SMILES)
1,< 50,"Cc1cc(CN2CCN(C)CC2)ccc1-n1cc(-c2nc(N[C@H]3CCN(S(=O)(=O)c4cn(C)cn4)C[C@H]3F)ncc2C(F)(F)F)cn1 [Example 102, N-((3R,4S)-3-Fluoro-1-((1-methyl-1H-imidazol-4-yl)sulfonyl)piperidin-4-yl)-4-(1-(2-methyl-4-((4-methylpiperazin-1-yl)methyl)phenyl)-1H-pyrazol-4-yl)-5-(trifluoromethyl)pyrimidin-2-amine]"
2,< 50,"CCn1cnc(S(=O)(=O)N2CCC(Nc3ncc(C(F)(F)F)c(-c4cnn(C5CCOCC5)c4)n3)CC2)c1 [Example 24, N-(1-((1-Ethyl-1H-imidazol-4-yl)sulfonyl)piperidin-4-yl)-4-(1-(tetrahydro-2H-pyran-4-yl)-1H-pyrazol-4-yl)-5-(trifluoromethyl)pyrimidin-2-amine]"
3,< 50,"CS(=O)(=O)N1CCC(Nc2ncc(C(F)(F)F)c(-c3cnn(C4CCOCC4)c3)n2)CC1 [Example 3, N-(1-(Methylsulfonyl)piperidin-4-yl)-4-(1-(tetrahydro-2H-pyran-4-yl)-1H-pyrazol-4-yl)-5-(trifluoromethyl)pyrimidin-2-amine]"
4,< 50,"CC(C)(O)Cn1cc(-c2nc(NC3CCN(S(=O)(=O)CCO)CC3)ncc2C(F)(F)F)cn1 [Example 227, 1-(4-(2-((1-((2-Hydroxyethyl)sulfonyl)piperidin-4-yl)amino)-5-(trifluoromethyl)pyrimidin-4-yl)-1H-pyrazol-1-yl)-2-methylpropan-2-ol]"
5,< 50,"C[C@@H](O)CNCc1ccc(-n2cc(-c3nc(NC4CCN(S(C)(=O)=O)CC4)ncc3C#N)cn2)c(Cl)c1 [Example 291, (R)-4-(1-(2-Chloro-4-(((2-hydroxypropyl)amino)methyl)phenyl)-1H-pyrazol-4-yl)-2-((1-(methylsulfonyl)piperidin-4-yl)amino)pyrimidine-5-carbonitrile]"
6,< 50,"CCS(=O)(=O)N1CCC(Nc2ncc(C(F)(F)F)c(-c3cnn(CC(C)(C)O)c3)n2)CC1 [Example 53, 1-(4-(2-((1-(Ethylsulfonyl)piperidin-4-yl)amino)-5-(trifluoromethyl)pyrimidin-4-yl)-1H-pyrazol-1-yl)-2-methylpropan-2-ol]"
7,< 50,"Cc1nc(CNC(C)(C)C)ccc1-n1cc(-c2nc(NC3CCN(S(=O)(=O)c4cn(C)cn4)CC3)ncc2C#N)cn1 [Example 152, 4-(1-(6-((tert-Butylamino)methyl)-2-methylpyridin-3-yl)-1H-pyrazol-4-yl)-2-((1-((1-methyl-1H-imidazol-4-yl)sulfonyl)piperidin-4-yl)amino)pyrimidine-5-carbonitrile]"
8,< 50,"[2H]C([2H])([2H])NCc1ccc(-n2cc(-c3nc(NC4CCN(S(=O)(=O)C5CC5)CC4)ncc3Cl)cn2)c(Cl)c1 [Example 135, 5-Chloro-4-(1-(2-chloro-4-(((methyl-d3)amino)methyl)phenyl)-1H-pyrazol-4-yl)-N-(1-(cyclopropylsulfonyl)piperidin-4-yl)pyrimidin-2-amine]"
9,< 50,"CNCc1ccc(-n2cc(-c3nc(N[C@H]4CCN(S(=O)(=O)C5CCC5)C[C@H]4F)ncc3C#N)cn2)c(Cl)c1 [Example 121, 4-(1-(2-Chloro-4-((methylamino)methyl)phenyl)-1H-pyrazol-4-yl)-2-(((3R,4S)-1-(cyclobutylsulfonyl)-3-fluoropiperidin-4-yl)amino)pyrimidine-5-carbonitrile]"
10,< 50,"[2H]C([2H])([2H])NCc1ccc(-n2cc(-c3nc(NC4CCN(S(=O)(=O)c5cn(C)cn5)CC4)ncc3Cl)cn2)c(C)c1 [Example 136, 5-Chloro-N-(1-((1-methyl-1H-imidazol-4-yl)sulfonyl)piperidin-4-yl)-4-(1-(2-methyl-4-(((methyl-d3)amino)methyl)phenyl)-1H-pyrazol-4-yl)pyrimidin-2-amine]"
11,< 50,"Cn1cnc(S(=O)(=O)N2CCC(Nc3ncc(C(F)(F)F)c(-c4cnn(C[C@H]5CCOC5)c4)n3)CC2)c1 [Example 33, (R)—N-(1-((1-Methyl-1H-imidazol-4-yl)sulfonyl)piperidin-4-yl)-4-(1-((tetrahydrofuran-3-yl)methyl)-1H-pyrazol-4-yl)-5-(trifluoromethyl)pyrimidin-2-amine]"
12,< 50,"CC(C)(O)Cn1cc(-c2nc(N[C@H]3CCN(S(=O)(=O)CCCN4CCOCC4)C[C@H]3F)ncc2C(F)(F)F)cn1 [Example 201, 1-(4-(2-(((3R,4S)-3-Fluoro-1-((3-morpholinopropyl)sulfonyl)piperidin-4-yl)amino)-5-(trifluoromethyl)pyrimidin-4-yl)-1H-pyrazol-1-yl)-2-methylpropan-2-ol]"
13,< 50,"CC(C)(O)Cn1cc(-c2nc(N[C@H]3CCN(S(C)(=O)=O)C[C@H]3F)ncc2C(F)(F)F)cn1 [Example 58, 1-(4-(2-(((3R,4S)-3-Fluoro-1-(methylsulfonyl)piperidin-4-yl)amino)-5-(trifluoromethyl)pyrimidin-4-yl)-1H-pyrazol-1-yl)-2-methylpropan-2-ol]"
14,< 50,"[2H]C([2H])([2H])NCc1ccc(-n2cc(-c3nc(N[C@H]4CCN(S(C)(=O)=O)C[C@H]4F)ncc3C#N)cn2)c(Cl)c1 [Example 143, 4-(1-(2-Chloro-4-(((methyl-d3)amino)methyl)phenyl)-1H-pyrazol-4-yl)-2-(((3R,4S)-3-fluoro-1-(methylsulfonyl)piperidin-4-yl)amino)pyrimidine-5-carbonitrile]"
15,< 50,"CS(=O)(=O)N1CCC(Nc2ncc(C#N)c(-c3cnn(-c4ccc(CN[C@H]5CC[C@](C)(O)CC5)cc4Cl)c3)n2)CC1 [Example 174, 4-(1-(2-Chloro-4-((((1r,4r)-4-hydroxy-4-methylcyclohexyl)amino)methyl)phenyl)-1H-pyrazol-4-yl)-2-((1-(methylsulfonyl)piperidin-4-yl)amino)pyrimidine-5-carbonitrile]"
16,< 50,"Cc1nc(CNC(C)C)ccc1-n1cc(-c2nc(NC3CCN(S(=O)(=O)c4cn(C)cn4)CC3)ncc2Cl)cn1 [Example 274, 5-Chloro-4-(1-(6-((isopropylamino)methyl)-2-methylpyridin-3-yl)-1H-pyrazol-4-yl)-N-(1-((1-methyl-1H-imidazol-4-yl)sulfonyl)piperidin-4-yl)pyrimidin-2-amine]"
17,< 50,"Cc1cc(CN2CCN(C)CC2)ccc1-n1cc(-c2nc(NC3CCN(S(=O)(=O)c4cn(C)cn4)CC3)ncc2C(F)(F)F)cn1 [Example 100, N-(1-((1-Methyl-1H-imidazol-4-yl)sulfonyl)piperidin-4-yl)-4-(1-(2-methyl-4-((4-methylpiperazin-1-yl)methyl)phenyl)-1H-pyrazol-4-yl)-5-(trifluoromethyl)pyrimidin-2-amine]"
18,< 50,"Cc1nc(CNC(C)C)ccc1-n1cc(-c2nc(N[C@H]3CCN(S(=O)(=O)c4cn(C)cn4)C[C@H]3C)ncc2C#N)cn1 [Example 278, 4-(1-(6-((Isopropylamino)methyl)-2-methylpyridin-3-yl)-1H-pyrazol-4-yl)-2-(((3R,4S)-3-methyl-1-((1-methyl-1H-imidazol-4-yl)sulfonyl)piperidin-4-yl)amino)pyrimidine-5-carbonitrile]"
19,< 50,"CN[C@H]1C[C@H](n2cc(-c3nc(NC4CCN(S(=O)(=O)c5ccccn5)CC4)ncc3C(F)(F)F)cn2)C1 [Example 50, 4-(1-((1r,3r)-3-(Methylamino)cyclobutyl)-1H-pyrazol-4-yl)-N-(1-(pyridin-2-ylsulfonyl)piperidin-4-yl)-5-(trifluoromethyl)pyrimidin-2-amine]"
20,< 50,"O=C(Nc1ccc(S(=O)(=O)N2CCC(Nc3ncc(C(F)(F)F)c(-c4cnn(C5CCOCC5)c4)n3)CC2)cc1)N1CCOCC1 [Example 8, N-(4-((4-((4-(1-(Tetrahydro-2H-pyran-4-yl)-1H-pyrazol-4-yl)-5-(trifluoromethyl)pyrimidin-2-yl)amino)piperidin-1-yl)sulfonyl)phenyl)morpholine-4-carboxamide]"
21,< 50,"CNCc1ccc(-n2cc(-c3nc(N[C@H]4CCN(S(=O)(=O)c5cn(C)cn5)C[C@H]4C)ncc3C(F)(F)F)cn2)c(C)n1 [Example 270, N-((3R,4S)-3-Methyl-1-((1-methyl-1H-imidazol-4-yl)sulfonyl)piperidin-4-yl)-4-(1-(2-methyl-6-((methylamino)methyl)pyridin-3-yl)-1H-pyrazol-4-yl)-5-(trifluoromethyl)pyrimidin-2-amine]"
22,< 50,"Cc1cc(CN2CCN(C)CC2)ccc1-n1cc(-c2nc(NC3CCN(S(=O)(=O)c4cn(C)cn4)CC3)ncc2Cl)cn1 [Example 109, 5-Chloro-N-(1-((1-methyl-1H-imidazol-4-yl)sulfonyl)piperidin-4-yl)-4-(1-(2-methyl-4-((4-methylpiperazin-1-yl)methyl)phenyl)-1H-pyrazol-4-yl)pyrimidin-2-amine]"
23,< 50,"CN(C)C1CCCCC1NCc1ccc(-n2cc(-c3nc(NC4CCN(S(C)(=O)=O)CC4)ncc3C#N)cn2)c(Cl)c1 (stereo not shown) [Example 184, 4-(1-(2-Chloro-4-(((2-(dimethylamino)cyclohexyl)amino)methyl)phenyl)-1H-pyrazol-4-yl)-2-((1-(methylsulfonyl)piperidin-4-yl)amino)pyrimidine-5-carbonitrile]"
24,< 50,"CS(=O)(=O)N1CCC(Nc2ncc(Cl)c(-c3cnn(C4CCOCC4)c3)n2)CC1 [Example 22, 5-Chloro-N-(1-(methylsulfonyl)piperidin-4-yl)-4-(1-(tetrahydro-2H-pyran-4-yl)-1H-pyrazol-4-yl)pyrimidin-2-amine]"
25,< 50,"CCN1CCN(Cc2ccc(-n3cc(-c4nc(NC5CCN(S(=O)(=O)c6cn(C)cn6)CC5)ncc4Cl)cn3)c(C)n2)CC1 [Example 250, 5-Chloro-4-(1-(6-((4-ethylpiperazin-1-yl)methyl)-2-methylpyridin-3-yl)-1H-pyrazol-4-yl)-N-(1-((1-methyl-1H-imidazol-4-yl)sulfonyl)piperidin-4-yl)pyrimidin-2-amine]"
